Converted amounts (≈) assume the structure as drawn. Blank lines part the entries; values can stand above or below the compound they belong to. The source made the active and inactive calls. No cut-off for these calls is given here.
Key:
[1] = test system: Human immunodeficiency virus; experiment: Antiviral activity against HIV infected in human H9 cells; type: functional, organism-based; details: Human immunodeficiency virus 1, H9
H9 = experiment: Cytotoxicity against human H9 cells; type: cell-based
[2] = Therapeutic index, ratio of IC50 for human H9 cells to EC50 for HIV; type: cell-based; details: read-out: Ratio IC50/EC50
MCF7 = experiment: Cytotoxicity against human MCF7 cells after 3 days by SRB assay; type: functional, cell-based
A549 = experiment: Cytotoxicity against human A549 cells after 3 days by SRB assay; type: functional, cell-based

EC50 [1]: 17.5 µg/mL (≈ 67.8 µM)
SMILES: CC1=C2OC(C)(C)c3c(O)cc(C)c(c32)C(=O)C1=O [DEHYDROOXOPEREZINONE]
IC50 (H9): 25.1 µg/mL (≈ 97.2 µM)
selectivity ratio [2]: 1.43
Activity (MCF7): inactive
Activity (A549): inactive

SMILES: COc1cc(/C=C/C(=O)NCCc2ccc(O[C@@H]3O[C@H](CO)[C@@H](O)[C@H](O)[C@H]3O)c(OC)c2)ccc1O[C@@H]1O[C@H](CO)[C@@H](O)[C@H](O)[C@H]1O
Activity (MCF7): inactive
Activity (A549): inactive

SMILES: O=C(O)c1cc2c(c3c1ccc1ccccc13)OCO2
Activity (MCF7): inactive
Activity (A549): inactive

Reference: ChEMBL document CHEMBL1146558, “Constituents from the stems of Aristolochia manshuriensis” (J Nat Prod, 2003)
